In article PMC5412877, “Discovery of a PCAF Bromodomain Chemical Probe” (Angewandte Chemie (International Ed. in English), 2016):
Entries after “also recorded” stand apart in the source; their conditions may differ. Like-named read-outs stand apart in the source and are kept apart here.

Experiments:
PCAF Brd [1] = target: T1, PCAF Brd (Homo sapiens, UniProt Q92831); experiment: Differential scanning fluorimetry (DSF), PCAF Brd; format: binding; conditions: for ΔT m [°C] PCAF (DSF): compound concentration 10 μM
T1 construct: Human bromodomains were cloned, expressed and purified as previously described; made in house
T1 sequence (Q92831 723-827 limits assumed): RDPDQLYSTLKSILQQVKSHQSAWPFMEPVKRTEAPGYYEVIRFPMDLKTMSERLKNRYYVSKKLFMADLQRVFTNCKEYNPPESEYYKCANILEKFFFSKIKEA
Method: (§1) Protein Expression and Purification
(§2) Human bromodomains were cloned, expressed and purified as previously described.[1]
(§3) Differential Scanning Fluorimetry (DSF)
(§4) Thermal melting points were recorded using an Mx3005p Real Time PCR Machine (Stratagene).
(§5) Subject proteins were buffered in 10 mM HEPES at pH 7.5, 500 mM NaCl and assayed in a 96-well […]
(§6) plate at a final concentration of 2 μM in 20 μL volume. Compounds were then added to a final […]
(§7) concentration of 10 μM. SPYRO Orange (Molecular Probes) was used as a fluorescent probe at a […]
(§8) dilution of 1:1000. Excitation and emission filters for the SPYRO-Orange dye were set to 465 nm and […]
(§9) 590 nm, respectively. The temperature was raised with a step of 3 °C/min from 25 °C to 96 °C and […]
(§10) fluorescence readings were taken at each interval. Data was analysed as previously described.[2]
(§11) Bromodomain affinity selectivity panel of (S)-11
(§12) Supplemental Figure 1. DSF Selectivity panel of (S)-11 against 48 human Bromodomains. […]
(§13) ┼Mean ΔTm ± SEM (number of measurements= 2). Compound concentration: 10 μM […]
(§14) (1 picture or pasted object on this page, not shown here)

PCAF Brd [2] = target: T1, PCAF Brd; experiment: Isothermal titration calorimetry (ITC), PCAF Brd; format: binding
Method: Isothermal Titration Calorimetry (ITC)
Experiments were carried out on a Nano-ITC Standard Volume Instrument (TA Instruments). All experiments were carried out at 25 °C in 20 mM HEPES pH 7.5, 150 mM NaCl, 0.5 mM TCEP and 5% glycerol. Protein solutions were buffer exchanged by gel filtration. The titrations were conducted using an initial injection of 2 μL followed by 32 injections of 8 μL. Background dilution heat was substracted from each experiment. Thermodynamic parameters were calculated using ΔG = ΔH-T ΔS = -RTlnKB , where KD = 1/KB. ΔG, ΔH and ΔS are changes in free energy, enathalpy and entropy resepectively. Independent single site binding models were employed in data analysis.
Supplemental Figure 3. ITC trace of D-Moses and PCAF Brd […]

[3] = Metabolic stability in mouse liver microsomes; format: in vitro ADME; conditions: for microsomal CLint: mouse liver microsomes, n 5, read-out: CLint (μL/min/mg protein) mouse
Method: (§15) In vitro Metabolism Studies
(§16) Metabolic stability studies were carried out exposing nominated compounds to samples of liver microsomes. Compounds were analysed by LC-MS for loss of compound at 0, 5, 15, 30 and 45 minute time points. The rate of metabolic degradation of compounds was used to calculate CLint, SE CLint, t1/2 (summarised in supplemental table 2.)
(§17) Supplemental Table 4. In vitro metabolic stability of compounds DL-45/DL-Moses and 39 Compound Metbolic Stability (Human) Metbolic Stability (Mouse) […]

[4] = Metabolic stability in human liver microsomes; format: in vitro ADME; conditions: for microsomal CLint: human liver microsomes, n 5, read-out: CLint (μL/min/mg protein) human
Method: as §15, §16, §17

GCN5L2 = target: T2, GCN5L2 (Homo sapiens, UniProt Q92830); experiment: Differential scanning fluorimetry (DSF), GCN5 (GCN5L2) Brd; format: binding; conditions: compound 10 μM
T2 construct: made in house
T2 sequence (Q92830 728-832 limits assumed): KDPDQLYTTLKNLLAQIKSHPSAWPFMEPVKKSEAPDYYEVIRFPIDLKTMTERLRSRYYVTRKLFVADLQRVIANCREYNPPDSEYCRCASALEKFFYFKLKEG
Method: as §1, §2, §3, §4, §5, §6, §7, §8, §9, §10, §11, §12, §13, §14

Kinetic solubility = format: physicochemical; conditions: kinetic from dmso stock
MDCK‐MDR1 cells = experiment: Permeability in MDCK-MDR1 cells; format: in vitro ADME
48 human Brds = experiment: DSF selectivity panel of 48 human bromodomains; format: binding; conditions: compound 10 μM
HIV‐1 = conditions: ref 8c; read-out: HIV-1 EC50 (disrupting HIV‐1 replication); cited from earlier work
[5] = target: T3, PCAF‐Brd histone H3.3 interaction (Homo sapiens, UniProt Q92831); experiment: nanoBRET target engagement assay, PCAF-Brd / histone H3.3 in HEK293 cells; format: cell-based; conditions: live HEK293 cells; compounds 5 μM, 18 h
T3 construct: NanoLuciferase fusion of the isolated bromodomain of PCAF; expressed in transfected cells; host or cells: HEK293
T3 sequence (Q92831 723-827 limits assumed): T1 sequence (Q92831 723-827 limits assumed)
Method: page 48: NanoLuciferase Bioluminescent Resonance Energy Transfer (NanoBRET) Assay Methods HEK293 cell (8 x 105) were plated in each well of a 6-well plate and co-transfected with Histone H3.3- HaloTag (NM_002107) and a NanoLuciferase fusion of the isolated bromodomain of PCAF. Twenty hours post-transfection, cells were collected, washed with PBS, and exchanged into media containing phenol red-free DMEM and 4% FBS in the absence (control sample) or the presence (experimental sample) of 100 nM NanoBRET 618 fluorescent ligand (Promega). Cell density was adjusted to 2 x 10^5 cells/ml and then re-plated in a 96-well assay white plate (Corning Costar #3917). […] Readings were performed within 5 minutes using a Glo-MAX Discover instrument (Promega) equipped with 450/8 nm bandpass and 600 nm longpass filters with a 0.3 sec reading setting. A corrected BRET ratio was calculated and is defined as the ratio of the emission at 600 nm/450 nm for experimental samples (i.e. those treated with NanoBRET fluorescent ligand) subtracted by and the emission at 600 nm/450 nm for control samples (not treated with NanoBRET fluorescent ligand). BRET ratios are expressed as milliBRET units (mBU), where 1 mBU corresponds to the corrected BRET ratio multiplied by 1000. […] Compounds were analysed by LC-MS for loss of compound at 0, 5, 15, 30 and 45 minute time points. […]

GST-PCAFBRD = target: T4, GST-PCAFBRD (Homo sapiens, UniProt Q92831); experiment: HTRF assay, displacement of biotinylated compound 46 from GST-PCAF Brd; format: binding; conditions: GST-PCAF Brd; read-out: KD of compound 46 used for Cheng-Prusoff
T4 construct: Final assay concentrations: GST-PCAFBRD (20 nM)
T4 sequence (Q92831 723-827 limits assumed): T1 sequence (Q92831 723-827 limits assumed)
Method: obtained from 5 healthy donors. PBMC were cultured either with D-Moses or L-Moses at concentrations of 0.1, 1 and 10 μM or with a control (DMSO) for 24 hours. Viability of PBMC were then checked using LIVE/DEAD Fixable Aqua Dead Cell Stain Kit (ThermoFisher Scientific).
High Throughput Time Resolved Fluorescence Assay (HTRF)
HTRF assay was carried out using a Cisbio Epigenous kit B (62BDBPEH) using the standard assay protocol with GST-PCAFBRD.[3] Final assay concentrations: GST-PCAFBRD (20 nM), SA-XL665 (62.5 nM), α-GST donor (62.5 nM), compound 46 (500 nM). Ki was calculated using the Cheng-Prussof equation […]
Recombinant PfGCN5 (bromodomain only) was expressed in E. coli and purified using a previously described system. The protein crystallized with the compound L-45 at 293 K in 0.1M CaCl2, 30% PEG 8k, 0.2 M NH4SO4. The concentrations of the protein sample and the compound were 10 mg/ml […]
X-ray diffraction data for the crystal was collected at 100 K at the beamline 08ID-1 of the Canadian Macromolecular Crystallography Facility. The dataset was processed using the HKL-2000 suite, and the structure solved using Phaser, a component of the CCP4 suite with molecular replacement model 4QNS. […]

[6] = Table 2, read-out: K D (nM) (ITC) PCAF Brd
[7] = read-out: GCN5L2 ΔTm (°C) (DSF)
[8] = Supplemental Table 3, compound concentration 30 μM, protein concentration 280-320 μM, read-out: PCAF KD (μM) (ITC)
[9] = Table 1, read-out: K D [μM] (ITC) PCAF Brd

| Compound | ΔT m [°C] PCAF (DSF) (PCAF Brd [1]) | ΔTm at 10 µM (GCN5L2; [7]) | Kd (PCAF Brd [2]; [8]) | GCN5L2 ΔTm (°C) (DSF) (GCN5L2) | other results |
| --- | --- | --- | --- | --- | --- |
| Cc1nnc2c3ccccc3c(N[C@@H](C)[C@H](c3ccc(F)cc3)N(C)C)nn12 (relative stereo) [Compound 39] | 8.3 °C | 4.4 °C |  |  | Kd (PCAF Brd [2]; [6]): 195 ± 23 nM; microsomal CLint [3]: 21 µL/min/mg; half-life ([3]; mouse, liver microsomes, read-out: t1/2 mouse liver microsomes): 65 min; microsomal CLint [4]: 29 µL/min/mg; half-life ([4]; human, liver microsomes, read-out: t1/2 human liver microsomes): 48 min |
| Cc1nnc2c3ccccc3c(N[C@@H](C)[C@H](c3ccccc3)N(C)C)nn12 (relative stereo) [Compound 45] | 7.9 °C | 5 °C |  |  | Kd (PCAF Brd [2]; [6]): 168 ± 27 nM; solubility kinetic (Kinetic solubility): > 200 µM; efflux in MDCK‐MDR1 cells (MDCK‐MDR1 cells): low efflux; permeability in MDCK‐MDR1 cells (MDCK‐MDR1 cells): good; microsomal CLint [3]: 37 µL/min/mg; microsomal CLint [4]: 35 µL/min/mg |
| Cc1nnc2c3ccccc3c(N[C@@H](C)CN(C)C)nn12 [(S)‐11] | 7.4 °C | 4 °C | 284 nM |  | ΔTm at 10 µM (PCAF Brd [1]; Supplemental Table 1, number of measurements 2, compound 10 μM, read-out: PCAF ΔTm (°C), mean ± SEM): 5.4 °C; Kd (PCAF Brd [2]; [9]): 280 ± 29 nM; selectivity in DSF panel of 48 human Brds (48 human Brds): no observable activity against other Brds; ΔTm at 10 µM (GCN5L2; Supplemental Table 1, number of measurements 2, read-out: GCN5L2 ΔTm (°C), mean ± SEM): 3.7 °C |
| Cc1ccc(NCCCN)c([N+](=O)[O-])c1 [Compound 1] |  |  |  |  | EC50 (HIV‐1): 2.8 µM |
| CN(C)[C@H]1CCCC[C@@H]1Nc1nn2c(C(F)(F)F)nnc2c2ccccc12 [Compound 83] | 0.8 °C | 0 °C | > 30000 nM |  |  |
| CN(C)[C@H]1CCC[C@@H]1Nc1nn2c(C(F)(F)F)nnc2c2ccccc12 [Compound 84] | 0.7 °C | 0.2 °C | > 30000 nM |  |  |
| FC(F)(F)c1nnc2c3ccccc3c(NCc3ccccc3)nn12 [Compound 85] | 3.7 °C | 0.9 °C | > 30000 nM |  |  |
| CC(C)CC(CN(C)C)Nc1nn2c(C(F)(F)F)nnc2c2ccccc12 (stereo not shown) [Compound 86] | 0.02 °C |  | > 30000 nM | 0.2 °C |  |
| CCC(CN(C)C)Nc1nn2c(C(F)(F)F)nnc2c2ccccc12 (stereo not shown) [Compound 88] | 0.4 °C |  | > 30000 nM | 0.1 °C |  |
| CCC(CNc1nn2c(C(F)(F)F)nnc2c2ccccc12)N(C)C (stereo not shown) [Compound 89] | 0.4 °C |  | > 30000 nM | 0.2 °C |  |
| CCN(CC)CC(C)Nc1nn2c(C(F)(F)F)nnc2c2ccccc12 (stereo not shown) [Compound 90] | 0.4 °C |  | > 30000 nM | 0.1 °C |  |
| CCN1CCCC1CNc1nn2c(C(F)(F)F)nnc2c2ccccc12 (stereo not shown) [Compound 91] | 0.1 °C | 0.1 °C | > 30000 nM |  |  |
| Cc1nnc2c3ccccc3c(NCC3CCCN3C)nn12 (stereo not shown) [Compound 97] | 2.8 °C |  | 18200 nM | 0.9 °C |  |
| C[C@@H](CN(C)C)Nc1nn2c(C(F)(F)F)nnc2c2ccccc12 [Compound (S)‐17] | 0.65 °C | 0.2 °C |  |  | ΔT m [°C] PCAF (DSF) (PCAF Brd [1]; listed as (S)-17): 0.7 °C; Kd (PCAF Brd [2]; [9]): > 30000 nM |
| Cc1nnc2c3ccccc3c(NC(C)C(c3ccccc3)N(C)C)nn12 (stereo not shown) [D‐45] |  |  | > 30000 nM |  | K D (nM) (ITC) PCAF Brd (PCAF Brd [2]; Table 2): no observable binding; also recorded: Inactive; displacement of PCAF‐Brd from H3.3 in nanoBRET assay [5]: no effect |
| Cc1nnc2c3ccccc3c(NCC(NCCCCNC(=O)CCOCCOCCOCCOCCNC(=O)CCCCC3SCC4NC(=O)NC43)c3ccccc3)nn12 (stereo not shown) [compound 46, reference compound] |  |  |  |  | Kd (GST-PCAFBRD): 0.4 µM |
